Measurements published in PMC11050424, “Antibacterial and Hemolytic Activity of Antimicrobial Hydrogels Utilizing Immobilized Antimicrobial Peptides” (International Journal of Molecular Sciences, 2024).
≈ marks a conversion by molar mass, not a printed value. Residues, ends and D or L forms follow the SMILES beside them.

Tests used:
[1] = tested on: P. aeruginosa (CCUG 56489); type: cell-based, Pseudomonas aeruginosa
Procedure: (§1) The minimum inhibitory concentration protocol was adapted from [42], with the main change in volume for easier observation. In short, the protocol was as follows: a single colony of Staphylococcus aureus (CCUG 10778) or Pseudomonas aeruginosa (CCUG 56489) was inoculated in 4 mL of TSB and cultivated at 37 °C until OD ~ 0.7 which corresponds to a concentration of roughly 10^9 CFU mL^−1. This was then diluted 1000 times to a concentration of roughly 10^6 CFU mL^−1 using Mueller Hinton broth (MH broth). In the meantime, the different peptides were weighed in separate 15 mL falcon tubes and dissolved in MH broth for a concentration of 512 µM. Serial dilution by a factor of 2 was then performed, with MH broth, in a 24-well plate, leaving 500 µL of solution in each well. Then, 500 µL of the bacterial solution was added to each well resulting in a starting concentration of 5 × 10^5 CFU mL^−1. […] The plates were cultivated overnight (16–18 h) and the minimum inhibitory concentration was determined for the lowest concentration where no visible growth was observed. Three separate experiments were performed for all peptides and bacteria.

S. aureus (CCUG 10778) = type: cell-based, Staphylococcus aureus
Procedure: as §1

defibrinated horse blood = type: cell-based; details: red cells of horse, 1 h
Procedure: The use of hemolysis assays to study AMPs is a common implementation and quite standardized with small variations. Serial dilutions of the free AMPs were prepared in PBS to obtain 100 µL in Eppendorf tubes of the concentrations: 2, 4, 8, 16, 32, 64, 128, and 256 µM. A total of 100 µL of just PBS was added to an Eppendorf tube to serve as a negative control, and 100 µL of 0.2% Triton X-100 was added to an Eppendorf tube to serve as a positive control. The functionalized 8 mm Ø hydrogels as well as non-functionalized control hydrogels were placed in Eppendorf tubes together with 0.1, 0.2, 0.3 mL, or 0.4 mL PBS, two samples per type. For each volume, a set of negative control (PBS) and positive control (0.2% Triton X-100) was included using a matching volume. The blood used for the study was defibrinated horse blood from Thermo Fisher Scientific. The blood was placed in a 15 mL falcon tube and centrifuged at 4 °C for 10 min at 1000× g. The supernatant was discarded, and the erythrocytes were resuspended in 4 °C PBS and again centrifuged and the supernatant was removed. […]
The Eppendorf tubes were placed in an incubator at 37 °C for 1 h and the tubes were rotated 3 times every 15 min to limit sedimentation of the red blood cells. […] The absorbance was read at 540 nm using a Multiskan GO from Thermo Fisher Scientific. The rate of hemolysis was determined by Equation (2). […]

| Compound | MIC, P. aeruginosa [1] | MIC, S. aureus (S. aureus (CCUG 10778)) | Hemolysis at 8–16 µM (observed MIC values against P. aeruginosa) (defibrinated horse blood; 16) | Hemolysis at corresponding MIC values (defibrinated horse blood) |
| --- | --- | --- | --- | --- |
| NCCCC[C@H](NC(=O)[C@@H](N)CCCCN)C(=O)N1CCC[C@H]1C(=O)N[C@@H](CCCCN)C(=O)N1CCC[C@H]1C(=O)N[C@@H](CCCCN)C(=O)N1CCC[C@H]1C(=O)N[C@@H](CCCCN)C(=O)N1CCC[C@H]1C(=O)N[C@@H](Cc1c[nH]c2ccccc12)C(=O)N[C@@H](Cc1c[nH]c2ccccc12)C(=O)N[C@@H](Cc1c[nH]c2ccccc12)C(=O)N[C@@H](Cc1c[nH]c2ccccc12)C(N)=O [K9W4] (H-KKPKPKPKPWWWW-NH2) | 64 to 128 µM |  |  |  |
| N=C(N)NCCC[C@H](NC(=O)[C@@H]1CCCN1C(=O)[C@H](CCCNC(=N)N)NC(=O)[C@@H]1CCCN1C(=O)[C@H](CCCNC(=N)N)NC(=O)[C@@H]1CCCN1C(=O)[C@H](CCCCN)NC(=O)[C@@H](N)CCCCN)C(=O)N1CCC[C@H]1C(=O)N[C@@H](Cc1c[nH]c2ccccc12)C(=O)N[C@@H](Cc1c[nH]c2ccccc12)C(=O)N[C@@H](Cc1c[nH]c2ccccc12)C(=O)N[C@@H](Cc1c[nH]c2ccccc12)C(N)=O [KR9W4] (H-KKPRPRPRPWWWW-NH2) | 16 to 64 µM | 8 to 16 µM |  |  |
| CC[C@H](C)[C@H](N)C(=O)N[C@@H](CC(C)C)C(=O)N[C@@H](CCCNC(=N)N)C(=O)N[C@@H](Cc1c[nH]c2ccccc12)C(=O)N1CCC[C@H]1C(=O)N[C@@H](Cc1c[nH]c2ccccc12)C(=O)N[C@@H](Cc1c[nH]c2ccccc12)C(=O)N1CCC[C@H]1C(=O)N[C@@H](Cc1c[nH]c2ccccc12)C(=O)N[C@@H](CCCNC(=N)N)C(=O)N[C@@H](CCCNC(=N)N)C(=O)N[C@@H](CCCCN)C(N)=O [Omiganan, reference compound] (H-ILRWPWWPWRRK-NH2) | 32 µM (≈ 56.9 µg/mL) | 4 to 8 µM |  |  |
| CC[C@H](C)[C@H](NC(=O)CNC(=O)[C@H](CCCNC(=N)N)NC(=O)[C@H](Cc1ccccc1)NC(=O)[C@@H](NC(=O)[C@H](Cc1c[nH]cn1)NC(=O)[C@H](Cc1c[nH]cn1)NC(=O)[C@H](Cc1ccccc1)NC(=O)[C@@H](N)Cc1ccccc1)[C@@H](C)CC)C(=O)N[C@H](C(=O)N[C@@H](Cc1c[nH]cn1)C(=O)N[C@H](C(=O)NCC(=O)N[C@@H](CCCCN)C(=O)N[C@H](C(=O)N[C@H](C(=O)N[C@@H](Cc1c[nH]cn1)C(=O)N[C@@H](CCCNC(=N)N)C(=O)N[C@@H](CC(C)C)C(=O)N[C@H](C(=O)N[C@H](C(=O)NCC(N)=O)[C@@H](C)O)C(C)C)[C@@H](C)CC)[C@@H](C)O)C(C)C)C(C)C [Piscidin 1, reference compound] (H-FFHHIFRGIVHVGKTIHRLVTG-NH2) | 8 to 16 µM | 1 to 2 µM | 60–100% |  |
| N=C(N)NCCC[C@H](NC(=O)[C@@H](N)CCCNC(=N)N)C(=O)N1CCC[C@H]1C(=O)N[C@@H](CCCNC(=N)N)C(=O)N1CCC[C@H]1C(=O)N[C@@H](CCCNC(=N)N)C(=O)N1CCC[C@H]1C(=O)N[C@@H](CCCNC(=N)N)C(=O)N1CCC[C@H]1C(=O)N[C@@H](Cc1c[nH]c2ccccc12)C(=O)N[C@@H](Cc1c[nH]c2ccccc12)C(=O)N[C@@H](Cc1c[nH]c2ccccc12)C(=O)N[C@@H](Cc1c[nH]c2ccccc12)C(N)=O [R9W4] (H-RRPRPRPRPWWWW-NH2) | 16 µM (≈ 30.9 µg/mL) | 8 µM (≈ 15.5 µg/mL) |  | below 20% |
| N=C(N)NCCC[C@H](NC(=O)[C@@H](N)CCCNC(=N)N)C(=O)N1CCC[C@H]1C(=O)N[C@@H](CCCNC(=N)N)C(=O)N1CCC[C@H]1C(=O)N[C@@H](CCCNC(=N)N)C(=O)N1CCC[C@H]1C(=O)N[C@@H](CCCNC(=N)N)C(=O)N1CCC[C@H]1C(=O)N[C@@H](Cc1c[nH]c2ccccc12)C(=O)N[C@@H](Cc1c[nH]c2ccccc12)C(=O)N[C@@H](Cc1c[nH]c2ccccc12)C(=O)N[C@@H](Cc1c[nH]c2ccccc12)C(=O)N[C@@H](Cc1c[nH]c2ccccc12)C(N)=O [R9W5] (H-RRPRPRPRPWWWWW-NH2) | 32 to 64 µM | 16 µM (≈ 33.9 µg/mL) |  |  |
